Assay [1] addresses full-length MALT1 protein (Strep-MALT1(1-824)-His) (Homo sapiens (Human), UniProt Q9UDY8). Kind of assay: MALT1 Biochemical Protease Assay (Ac-LRSR-AMC substrate). The following applies: 10 nM FL MALT1, 200 μM Ac-LRSR-AMC, 4 h at RT; read-out: MALT1_Biochemical activity (Ac-LRSR-amc) IC50. In a few lines: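 Fluorescence from AMC release off the quenched LRSR substrate was read after a 4 h reaction at RT. Values were normalised to no-enzyme and uninhibited controls and fitted for IC50 and Hill coefficient.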

The subject of another assay is TMD8 cells. Kind of assay: 4-day proliferation assay, TMD8. The format is cell-based. The following applies: Homo sapiens, 96 h, 4 days incubation, CellTiterGLO, read-out: Anti-proliferation: TMD-8 IC50. In outline: (§1)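 Each line was plated at 10,000 cells per well for linear growth, with no beta-mercaptoethanol during the assay. OCI-Ly3 cells were below passage 10.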
A general note: ATP-based viability assays read luminescence as a measure of living cells.

The test system of the next assay is Jurkat cells. Kind of assay: PMA Induced IL2 Production In Jurkat Cells. The format is cell-based. The following applies: Homo sapiens, PMA/Ionomycin, 20 h, read-out: IL-2 prod h Jurkat PMA IC50. As for the experimental part: Jurkat cells were maintained in complete RPMI 1640 media containing 10% fetal bovine serum, 10 mM HEPES, 100 units/mL of penicillin and 100 μg/mL of streptomycin. Prior to the assay, compounds were made 2- to 4-fold serial dilutions in DMSO. A volume of 10 μL of DMSO-diluted compound in each well were further diluted into 240 μL RPMI1640 complete media. Jurkat cells were harvested by centrifuge at 1200 RPM for 5 min, washed one time with RPMI 1640 media, and suspended in fresh complete RPMI 1640 media at concentration of 1.25×10^6 cell/mL. A volume of 160 uL of Jurkat cells (2×10^5 cells) were seeded in each well of 96 well plate-bottom plates. A volume of 20 uL of diluted compound in RMPI 1640 complete media were added to each well and incubated with Jurkat cells for 30 min at 37° C. in a 5% CO2 incubator. A volume 20 μL of diluted PMA/Ionomycin (81 nM/1.3 uM respectively, ebioscience, catalog number 00-4970-93) in RMPI 1640 complete media were added to each well. After incubation at 37° C. in 5% CO2 incubator for 20 h, supernatants were harvested. IL-2 concentration was assessed by ELISA (IL2 Duoset, R&D Systems, catalog number DY202). Colorimetric intensity at 450 nm was read by Spectramax plate reader and analyzed with Softmax Pro software. Cell viability was assessed by Cell Titer Glo kit (Promega, catalog number G7571) using Victor Luminescence reader (Victor 3V 4202938 by Perkin Elmer).

For assay [2], the system named is IL6 secretion by TMD8 ABC-DLBCL cells. Kind of assay: Human IL6 Mesoscale assay (TMD-8). The format is cell-based. The following applies: Homo sapiens, TMD8; TMD-8 cells, 24 h. In outline:
(§2)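 100,000 cells/well treated with compound in 9 twofold steps from 15 μM to 58.6 nM (0.3% DMSO) for 24 h at 37° C; supernatant cytokine measured by MSD electrochemiluminescence sandwich immunoassay. DMSO wells set maximum signal, BTK inhibitor RN486 (30 nM to 131 pM) set maximum inhibition.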

In assay [3] the test system is IL10 secretion by TMD8 ABC-DLBCL cells. Kind of assay: Human IL10 Mesoscale assay (TMD-8). The format is cell-based. The following applies: Homo sapiens, TMD8; TMD-8 cells, 24 h. In a few lines:
as §2

For another assay, the system named is OCI-Ly3 cells. Kind of assay: 4-day proliferation assay, OCI-Ly3. The following applies: Homo sapiens, 96 h, 4 days incubation, CellTiterGLO, read-out: Anti-proliferation: OCI-LY-3 IC50. The format is cell-based, human. In a few lines: as §1

Chain of full-length MALT1 protein (Strep-MALT1(1-824)-His) (Q9UDY8 whole entry): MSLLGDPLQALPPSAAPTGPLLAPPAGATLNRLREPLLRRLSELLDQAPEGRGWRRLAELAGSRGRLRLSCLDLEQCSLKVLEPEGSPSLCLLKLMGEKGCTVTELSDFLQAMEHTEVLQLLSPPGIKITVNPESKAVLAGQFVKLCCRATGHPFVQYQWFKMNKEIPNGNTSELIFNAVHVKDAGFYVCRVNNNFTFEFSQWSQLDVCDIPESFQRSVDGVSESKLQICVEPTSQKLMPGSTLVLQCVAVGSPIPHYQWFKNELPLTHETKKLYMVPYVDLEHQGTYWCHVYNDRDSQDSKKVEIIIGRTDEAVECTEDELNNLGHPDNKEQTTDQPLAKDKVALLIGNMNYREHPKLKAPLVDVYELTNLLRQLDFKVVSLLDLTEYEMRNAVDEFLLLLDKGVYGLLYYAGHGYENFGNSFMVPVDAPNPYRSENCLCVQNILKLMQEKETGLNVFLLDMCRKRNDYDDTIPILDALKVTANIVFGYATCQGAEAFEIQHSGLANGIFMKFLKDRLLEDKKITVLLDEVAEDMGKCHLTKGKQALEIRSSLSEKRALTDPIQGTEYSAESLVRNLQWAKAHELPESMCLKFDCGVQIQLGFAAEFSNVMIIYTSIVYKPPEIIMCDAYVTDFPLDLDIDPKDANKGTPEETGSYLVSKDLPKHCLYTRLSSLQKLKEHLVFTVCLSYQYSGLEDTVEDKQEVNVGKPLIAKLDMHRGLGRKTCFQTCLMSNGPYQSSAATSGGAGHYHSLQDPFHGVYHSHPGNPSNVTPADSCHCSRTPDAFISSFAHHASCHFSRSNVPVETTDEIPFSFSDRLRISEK

On to `N#Cc1ncc(NC(=O)c2cnn(-c3cncc4ccccc34)c2C(F)(F)F)cc1C(F)(F)F` [Cpd 49, N-(6-cyano-5-(trifluoromethyl)pyridin-3-yl)-1-(isoquinolin-4-yl)-5-(trifluoromethyl)-1H-pyrazole-4-carboxamide], for which the IC50 is 155 nM in assay [1]; 5010 nM in the assay with TMD8 cells; 18 nM in the assay on Jurkat cells; ~83 nM in assay [2]; 76 nM in assay [3]; 410 nM with OCI-Ly3 cells.
Turning to `O=C(Nc1cnc(-c2ncco2)c(Cl)c1)c1cnn(-c2cncc3ccccc23)c1C(F)(F)F` [Cpd 50, N-(5-Chloro-6-(oxazol-2-yl)pyridin-3-yl)-1-(isoquinolin-4-yl)-5-(trifluoromethyl)-1H-pyrazole-4-carboxamide], the IC50 in assay [1] is 20 nM; with TMD8 cells, 7080 nM; in the assay on Jurkat cells, 31 nM; in assay [2], 107 nM; in assay [3], 47 nM; in the assay on OCI-Ly3 cells it was 90 nM.
Regarding `Cc1ncnn1-c1ccc(NC(=O)c2cnn(-c3cncc4ccccc34)c2C(F)(F)F)cc1Cl` [Cpd 51, N-(3-Chloro-4-(5-methyl-1H-1,2,4-triazol-1-yl)phenyl)-1-(isoquinolin-4-yl)-5-(trifluoromethyl)-1H-pyrazole-4-carboxamide], the IC50 in assay [1] is 45 nM; with TMD8 cells, ~6610 nM; in the assay with Jurkat cells it was 96 nM; in assay [2], 62 nM; in assay [3], 126 nM; in the assay with OCI-Ly3 cells, 200 nM.
As to `Cn1ccc(-c2ncc(NC(=O)c3cnn(-c4cncc5ccccc45)c3C(F)(F)F)cc2Cl)n1` [Cpd 52, N-(5-chloro-6-(1-methyl-1H-pyrazol-3-yl)pyridin-3-yl)-1-(isoquinolin-4-yl)-5-(trifluoromethyl)-1H-pyrazole-4-carboxamide], the IC50 in assay [1] was found to be 35 nM; in the assay with TMD8 cells it was 5010 nM; in the assay on Jurkat cells it was 130 nM; in assay [2] it was 79 nM; in assay [3], 91 nM; in the assay with OCI-Ly3 cells, 210 nM.
As for `Cc1ncn(-c2ncc(NC(=O)c3cnn(-c4cncc5ccccc45)c3C(F)(F)F)cc2Cl)n1` [Cpd 53, N-(5-Chloro-6-(3-methyl-1H-1,2,4-triazol-1-yl)pyridin-3-yl)-1-(isoquinolin-4-yl)-5-(trifluoromethyl)-1H-pyrazole-4-carboxamide], the IC50 is 100 nM in assay [1]; ~13500 nM with TMD8 cells; 380 nM in the assay with Jurkat cells; 200 nM in assay [2]; 240 nM in assay [3]; 1070 nM with OCI-Ly3 cells.
For `Cc1ncnn1-c1ncc(NC(=O)c2cnn(-c3cncc4ccccc34)c2C(F)(F)F)cc1Cl` [Cpd 54, N-(5-Chloro-6-(5-methyl-1H-1,2,4-triazol-1-yl)pyridin-3-yl)-1-(isoquinolin-4-yl)-5-(trifluoromethyl)-1H-pyrazole-4-carboxamide], the IC50 in assay [1] was 275 nM; in the assay on TMD8 cells, 8710 nM; in the assay on Jurkat cells, 370 nM; in assay [2], 110 nM; in assay [3] it was 269 nM; in the assay on OCI-Ly3 cells, 460 nM.
As for `Cc1ncn(-c2ccc(NC(=O)c3cnn(-c4cncc5ccccc45)c3C(F)(F)F)cc2Cl)n1` [Cpd 55, N-(3-chloro-4-(3-methyl-1H-1,2,4-triazol-1-yl)phenyl)-1-(isoquinolin-4-yl)-5-(trifluoromethyl)-1H-pyrazole-4-carboxamide], the IC50 in assay [1] is 182 nM; in the assay with TMD8 cells it was 5250 nM; in the assay with Jurkat cells, 130 nM; in assay [2], ~93 nM; in assay [3], 195 nM; with OCI-Ly3 cells, 540 nM.
In the case of `O=C(Nc1ccc(-n2ccnn2)c(Cl)c1)c1cnn(-c2cncc3ccccc23)c1C(F)(F)F` [compound 43, N-(3-chloro-4-(1H-1,2,3-triazol-1-yl)phenyl)-1-(isoquinolin-4-yl)-5-(trifluoromethyl)-1H-pyrazole-4-carboxamide], the IC50 is 60 nM in assay [1]; 4680 nM with TMD8 cells; 54 nM in the assay on Jurkat cells; 102 nM in assay [2]; 81 nM in assay [3]; ~260 nM in the assay with OCI-Ly3 cells.

These data come from patent publication US10954214B2 (Janssen Pharmaceutica NV, priority 2016, dated 2021).
